According to PubChem BioAssay AID1259407 (Chemical Carcinogenesis Research Information System (CCRIS), 2018):
Calls of active or inactive are those of the source. No rule for the calls is given here.

Tested on: CCRIS mutagenicity, Ames/micronucleus/aberration tests
Assay: CCRIS mutagenicity studies
[1] = Test System: AMES SALMONELLA TYPHIMURIUM, Strain/Indicator: TA98, Metabolic Activation: NONE, Method: PREINCUBATION
[2] = Test System: AMES SALMONELLA TYPHIMURIUM, Strain/Indicator: TA100, Metabolic Activation: NONE, Method: PREINCUBATION
[3] = Test System: AMES SALMONELLA TYPHIMURIUM, Strain/Indicator: TA1535, Metabolic Activation: NONE, Method: PREINCUBATION
[4] = Test System: AMES SALMONELLA TYPHIMURIUM, Strain/Indicator: TA1537, Metabolic Activation: NONE, Method: PREINCUBATION
[5] = Test System: AMES SALMONELLA TYPHIMURIUM, Strain/Indicator: TA100, Metabolic Activation: RAT, LIVER, S-9, AROCLOR 1254, Method: PREINCUBATION

## C[C@H]1COc2c(C3(N)CC3)c(F)cc3c(=O)c(C(=O)O)cn1c23
[1]
  mutagenic call: inactive; negative
Test System: AMES SALMONELLA TYPHIMURIUM, Strain/Indicator: TA98, Metabolic Activation: RAT, LIVER, S-9, PHENOBARBITAL AND 5,6-BENZOFLAVONE, Method: PREINCUBATION
  mutagenic call: inactive; negative
[2]
  mutagenic call: inactive; negative
Test System: AMES SALMONELLA TYPHIMURIUM, Strain/Indicator: TA100, Metabolic Activation: RAT, LIVER, S-9, PHENOBARBITAL AND 5,6-BENZOFLAVONE, Method: PREINCUBATION
  mutagenic call: inactive; negative
[3]
  mutagenic call: inactive; negative
Test System: AMES SALMONELLA TYPHIMURIUM, Strain/Indicator: TA1535, Metabolic Activation: RAT, LIVER, S-9, PHENOBARBITAL AND 5,6-BENZOFLAVONE, Method: PREINCUBATION
  mutagenic call: inactive; negative
[4]
  mutagenic call: inactive; negative
Test System: AMES SALMONELLA TYPHIMURIUM, Strain/Indicator: TA1537, Metabolic Activation: RAT, LIVER, S-9, PHENOBARBITAL AND 5,6-BENZOFLAVONE, Method: PREINCUBATION
  mutagenic call: inactive; negative
Test System: E. COLI, Strain/Indicator: WP2 UVRA, Metabolic Activation: NONE, Method: PREINCUBATION
  mutagenic call: inactive; negative
Test System: E. COLI, Strain/Indicator: WP2 UVRA, Metabolic Activation: RAT, LIVER, S-9, PHENOBARBITAL AND 5,6-BENZOFLAVONE, Method: PREINCUBATION
  mutagenic call: inactive; negative

## Cc1c2c(c(C)c3c1ccc1ccccc13)C=C[C@@H](O)[C@@H]2O
Test System: CHINESE HAMSTER V-79, Strain/Indicator: V-79/OUABAIN, Metabolic Activation: CELL-MEDIATED, Method: STANDARD PLATE
  mutagenic call: active; positive

## CC(=O)Nc1ccc(S(N)(=O)=O)cc1
[1]
  mutagenic call: inactive; negative
Test System: AMES SALMONELLA TYPHIMURIUM, Strain/Indicator: TA98, Metabolic Activation: RAT, LIVER, S-9, AROCLOR 1254, Method: PREINCUBATION
  mutagenic call: inactive; negative
[2]
  mutagenic call: inactive; negative
[5]
  mutagenic call: inactive; negative

## Cc1ccc2c(c1)c(C)c1c3ccccc3nc-1n2C
Test System: AMES SALMONELLA TYPHIMURIUM, Strain/Indicator: TA97, Metabolic Activation: RAT, LIVER, S-9, AROCLOR 1254, Method: STANDARD PLATE
  mutagenic call: active; positive
Test System: AMES SALMONELLA TYPHIMURIUM, Strain/Indicator: TA98, Metabolic Activation: RAT, LIVER, S-9, AROCLOR 1254, Method: STANDARD PLATE
  mutagenic call: active; positive
Test System: AMES SALMONELLA TYPHIMURIUM, Strain/Indicator: TA102, Metabolic Activation: RAT, LIVER, S-9, AROCLOR 1254, Method: STANDARD PLATE
  mutagenic call: active; positive

## [Cl][Ti]([Cl])[Cl]
[1]
  mutagenic call: inactive; negative
Test System: AMES SALMONELLA TYPHIMURIUM, Strain/Indicator: TA98, Metabolic Activation: RAT LIVER S-9, PHENOBARBITAL AND BETA-NAPHTHOFLAVONE, Method: PREINCUBATION
  mutagenic call: inactive; negative
[2]
  mutagenic call: inactive; negative
Test System: AMES SALMONELLA TYPHIMURIUM, Strain/Indicator: TA100, Metabolic Activation: RAT LIVER S-9, PHENOBARBITAL AND BETA-NAPHTHOFLAVONE, Method: PREINCUBATION
  mutagenic call: active; positive
[3]
  mutagenic call: inactive; negative
Test System: AMES SALMONELLA TYPHIMURIUM, Strain/Indicator: TA1535, Metabolic Activation: RAT LIVER S-9, PHENOBARBITAL AND BETA-NAPHTHOFLAVONE, Method: PREINCUBATION
  mutagenic call: inactive; negative
[4]
  mutagenic call: inactive; negative
Test System: AMES SALMONELLA TYPHIMURIUM, Strain/Indicator: TA1537, Metabolic Activation: RAT LIVER S-9, PHENOBARBITAL AND BETA-NAPHTHOFLAVONE, Method: PREINCUBATION
  mutagenic call: inactive; negative
Test System: AMES SALMONELLA TYPHIMURIUM, Strain/Indicator: TA1538, Metabolic Activation: NONE, Method: PREINCUBATION
  mutagenic call: inactive; negative
Test System: AMES SALMONELLA TYPHIMURIUM, Strain/Indicator: TA1538, Metabolic Activation: RAT LIVER S-9, PHENOBARBITAL AND BETA-NAPHTHOFLAVONE, Method: PREINCUBATION
  mutagenic call: inactive; negative
Test System: E.COLI, Strain/Indicator: WP2UVRA, Metabolic Activation: NONE, Method: PREINCUBATION
  mutagenic call: inactive; negative
Test System: E.COLI, Strain/Indicator: WP2UVRA, Metabolic Activation: RAT LIVER S-9, PHENOBARBITAL AND BETA-NAPHTHOFLAVONE, Method: PREINCUBATION
  mutagenic call: inactive; negative

## O=[N+]([O-])c1ccccc1CO
[1]
  mutagenic call: inactive; negative
[2]
  mutagenic call: inactive; negative
[5]
  mutagenic call: inactive; negative

## CC12OOC1(C)c1c(ccc3ccccc13)O2 (stereo unspecified)
[2]
  mutagenic call: inactive; negative

## O=[N+]([O-])c1cc2c3c(c1)CCc1c4c(cc(c1-3)CC2)CCCC4
Test System: AMES SALMONELLA TYPHIMURIUM, Strain/Indicator: TA98(1,8-DNP6), Metabolic Activation: NONE
  mutagenic call: active; positive
Test System: AMES SALMONELLA TYPHIMURIUM, Strain/Indicator: TA98(1,8-DNP6), Metabolic Activation: RAT, LIVER, S-9, AROCLOR 1254
  mutagenic call: active; positive
Test System: AMES SALMONELLA TYPHIMURIUM, Strain/Indicator: TA98(NR), Metabolic Activation: NONE
  mutagenic call: active; positive
Test System: AMES SALMONELLA TYPHIMURIUM, Strain/Indicator: TA98(NR), Metabolic Activation: RAT, LIVER, S-9, AROCLOR 1254
  mutagenic call: active; positive
Test System: AMES SALMONELLA TYPHIMURIUM, Strain/Indicator: TA98, Metabolic Activation: NONE
  mutagenic call: active; positive
Test System: AMES SALMONELLA TYPHIMURIUM, Strain/Indicator: TA98, Metabolic Activation: RAT, LIVER, S-9, AROCLOR 1254
  mutagenic call: active; positive
Test System: AMES SALMONELLA TYPHIMURIUM, Strain/Indicator: TA100(NR), Metabolic Activation: NONE
  mutagenic call: active; positive
Test System: AMES SALMONELLA TYPHIMURIUM, Strain/Indicator: TA100(NR), Metabolic Activation: RAT, LIVER, S-9, AROCLOR 1254
  mutagenic call: active; positive
Test System: AMES SALMONELLA TYPHIMURIUM, Strain/Indicator: TA100, Metabolic Activation: NONE
  mutagenic call: active; positive
Test System: AMES SALMONELLA TYPHIMURIUM, Strain/Indicator: TA100, Metabolic Activation: RAT, LIVER, S-9, AROCLOR 1254
  mutagenic call: active; positive
Test System: AMES SALMONELLA TYPHIMURIUM, Strain/Indicator: TA104, Metabolic Activation: NONE
  mutagenic call: active; positive
Test System: AMES SALMONELLA TYPHIMURIUM, Strain/Indicator: TA104, Metabolic Activation: RAT, LIVER, S-9, AROCLOR 1254
  mutagenic call: active; positive

## COc1c(O)cc2oc(-c3ccc(O)cc3)cc(=O)c2c1O
[1]
  mutagenic call: inactive; negative
Test System: AMES SALMONELLA TYPHIMURIUM, Strain/Indicator: TA98, Metabolic Activation: RAT LIVER S-9, SODIUM BARBITAL AND BETA-NAPHTHAFLAVONE, Method: PREINCUBATION
  mutagenic call: inactive; negative
[2]
  mutagenic call: inactive; negative
Test System: AMES SALMONELLA TYPHIMURIUM, Strain/Indicator: TA100, Metabolic Activation: RAT LIVER S-9, SODIUM BARBITAL AND BETA-NAPHTHAFLAVONE, Method: PREINCUBATION
  mutagenic call: inactive; negative

## CCN(CC)CCCNC(=O)N/N=C/c1ccc([N+](=O)[O-])o1
Test System: E. COLI, Strain/Indicator: WP2 UVRA, Metabolic Activation: NONE, Method: SPOT
  mutagenic call: active; positive
